Patent US8450348B2, “Derivatives of squaric acid with anti-proliferative activity” (Forma TM, LLC, priority 2007, dated 2013)

Experiments:
Assay type in all cases: cell-based
MCF7 [1] = assay: IC50 determination, SRB assay (Example 62); conditions: Homo sapiens, estimated from fitted curve, growth inhibition
Procedure: (§1) 3,000-15,000 cells/well were exposed to the test compounds at a concentration of 1 μM for 48 hours, and cytotoxicity was measured using the SRB assay according to Shekan et al (J Natl Cancer Inst (1990) 82, 1107-112). Briefly, cells were plated in 96 well dishes 24 hours prior to compound addition. The assay was terminated with the addition of cold TCA to a final concentration of 10% and the plates were incubated for one hour at 4° C. The plates were then washed 5 times with water and 100 μl of a Sulforhodamine B solution ([…]) was added to each well. The plate was then incubated for 10 minutes at room temperature before removal of unbound dye by washing with 1% acetic acid. The bound dye was solubilized with 10 mM Trizma base and the absorbance read at OD570. Inhibitory activity of the compounds was calculated as % inhibition compared to cells treated with the solvent (DMSO). Table 2 represents the growth inhibitory activity of certain compounds of the invention across a number of tumor cell lines.
(§2) The assay was performed similar to example 61. However, test compounds were added at various concentrations, such as from 0.001 to about 0.1 μM, from 0.1 to about 10 μM, or from 1 to about 10 μM, as the need may be, in order to estimate the IC50 values. IC50 values were determined by plotting the percentage inhibitory activity for each concentration, fitting a curve using appropriate software and estimating the concentration at which 50% inhibition of growth would occur.

HCT-116 [2] = assay: IC50 determination, SRB assay (Example 62); conditions: Homo sapiens, estimated from fitted curve, growth inhibition
Procedure: as §1, §2

SW-620 [3] = assay: IC50 determination, SRB assay (Example 62); conditions: Homo sapiens, estimated from fitted curve, growth inhibition
Procedure: as §1, §2

MCF7 [4] = assay: SRB assay, % inhibition of tumor cell growth (Example 61); conditions: Homo sapiens, 48 hours, vs DMSO-treated cells
Procedure: as §1

HCT-116 [5] = assay: as above; conditions: Homo sapiens, 48 hours, vs DMSO-treated cells
Procedure: as §1

PC-3 = assay: as above; conditions: Homo sapiens, 48 hours, vs DMSO-treated cells
Procedure: as §1

A2780 [6] = assay: as above; conditions: Homo sapiens, 48 hours, vs DMSO-treated cells
Procedure: as §1

SW-620 [7] = assay: as above; conditions: Homo sapiens, 48 hours, vs DMSO-treated cells
Procedure: as §1

A2780 [8] = assay: IC50 determination, SRB assay (Example 62); conditions: Homo sapiens, estimated from fitted curve, growth inhibition
Procedure: as §1, §2

A-549 = assay: SRB assay, % inhibition of tumor cell growth (Example 61); conditions: Homo sapiens, A549, 48 hours, vs DMSO-treated cells
Procedure: as §1

Row | SMILES | IC50 (MCF7 [1]) [µM] | IC50 (HCT-116 [2]) [µM] | IC50 (SW-620 [3]) [µM] | inhibition at 1 µM (MCF7 [4]) [%] | inhibition at 1 µM (HCT-116 [5]) [%] | inhibition at 1 µM (PC-3) [%] | inhibition at 1 µM (A2780 [6]) [%] | inhibition at 1 µM (SW-620 [7]) [%] | IC50 (A2780 [8]) [µM] | inhibition at 1 µM (A-549) [%]
1 | O=c1c(NCCc2ccc(Oc3ccccc3)cc2)c(Nc2cccnc2)c1=O [SQ-5, 3-[2-(4-Phenoxyphenyl)-ethylamino]-4-(pyridin-3-yl-amino)-cyclobut-3-ene-1,2-dione] | < 10 | < 0.1 | < 2 | > 50 | > 80 | > 50 | > 80 | 0 |  | 
2 | O=c1c(NCCCCCCOc2ccc(Cl)cc2)c(Nc2ccncc2)c1=O [SQ-7B] | < 0.1 | < 0.1 |  |  | > 80 | > 50 | > 80 | > 50 | < 0.1 | 
3 | O=c1c(NCCCCCCOc2ccc(Cl)c(Cl)c2)c(Nc2ccncc2)c1=O [SQ-15] |  | < 0.1 | < 0.5 | > 20 | > 80 | > 50 | > 80 | > 20 |  | > 20
4 | O=c1c(NCc2ccc(Oc3ccccc3)cc2)c(Nc2cccnc2)c1=O [SQ-34, 3-(4-Phenoxy-benzylamino)-4-(pyridin-3-ylamino)-cyclobut-3-ene-1,2-dione] |  |  |  |  | > 20 | > 0 | > 20 | 0 |  | 0
